How the values were obtained:
Test in all cases: relative viability (nuclei count vs DMSO), 5 days (fraction); higher = more cells survive
[1] = compound: CS(=O)(=O)N1CCN(Cc2cc3nc(-c4cccc5[nH]ncc45)nc(N4CCOCC4)c3s2)CC1 [Pictilisib] + O=C(CCCCCCC(=O)Nc1ccccc1)NO [Vorinostat] (partner 1 µM)
Procedure, shortened: (§1)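 After 5 days of treatment, lung cancer cells in 1536-well plates were fixed and stained in a single step (final 0.05% Triton X-100, 1% formaldehyde, 1 ug/ml Hoechst) and their nuclei counted on 4× images. Treatment had been applied by pin tool the day after seeding as one drug alone or as a fixed anchor-drug dose with five library-drug doses (not always all listed) in √10 steps. Relative viability is the nuclei count of treated wells divided by that of vehicle wells, and values are medians of duplicate plates.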

[2] = compound: CS(=O)(=O)N1CCN(Cc2cc3nc(-c4cccc5[nH]ncc45)nc(N4CCOCC4)c3s2)CC1 [Pictilisib] + CC1(C)CCC(c2ccc(Cl)cc2)=C(CN2CCN(c3ccc(C(=O)NS(=O)(=O)c4ccc(N[C@H](CCN5CCOCC5)CSc5ccccc5)c(S(=O)(=O)C(F)(F)F)c4)cc3)CC2)C1 [Navitoclax] (partner 0.5 µM)
Procedure, shortened: as §1

[3] = compound: CS(=O)(=O)N1CCN(Cc2cc3nc(-c4cccc5[nH]ncc45)nc(N4CCOCC4)c3s2)CC1 [Pictilisib] + CCNC(=O)c1noc(-c2cc(C(C)C)c(O)cc2O)c1-c1ccc(CN2CCOCC2)cc1 [Luminespib] (partner 0.01 µM)
Procedure, shortened: as §1

[4] = compound: NC1(c2ccc(-c3nc4ccn5c(=O)[nH]nc5c4cc3-c3ccccc3)cc2)CCC1 [MK-2206] + Nc1nc2[nH]cc(CCc3ccc(C(=O)N[C@@H](CCC(=O)O)C(=O)O)cc3)c2c(=O)[nH]1 [Pemetrexed] (partner 0.2 µM)
Procedure, shortened: as §1

[5] = compound: NC1(c2ccc(-c3nc4ccn5c(=O)[nH]nc5c4cc3-c3ccccc3)cc2)CCC1 [MK-2206]
Procedure, shortened: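 Vehicle-anchored 1536-well plates of lung cancer cell lines, held overnight at 37 °C, were pinned with five library-drug doses (not always all listed) spaced by √10. No medium change followed over the next 5 days, after which the cells were fixed, permeabilised and Hoechst-stained together and imaged at 4×. Nuclei were counted with MetaXpress, and viability is treated-well nuclei over vehicle-well nuclei, taken as a median across plates. Plates passed with control CV below 25% and at least one doubling.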

| Cell Line | relative viability ([1]; first compound 0.02 µM) | relative viability ([1]; first compound 0.06325 µM) | relative viability ([1]; first compound 0.6325 µM) | relative viability ([1]; first compound 2 µM) | relative viability ([2]; first compound 0.02 µM) | relative viability ([2]; first compound 0.06325 µM) | relative viability ([2]; first compound 0.6325 µM) | relative viability ([2]; first compound 2 µM) | relative viability ([3]; first compound 0.02 µM) | relative viability ([3]; first compound 0.06325 µM) | relative viability ([3]; first compound 0.6325 µM) | relative viability ([3]; first compound 2 µM) | relative viability ([4]; first compound 0.01 µM) | relative viability ([4]; first compound 0.03162 µM) | relative viability ([4]; first compound 0.3162 µM) | relative viability ([4]; first compound 1 µM) | relative viability ([5]; 0.01 µM) | relative viability ([5]; 0.03162 µM) | relative viability ([5]; 0.3162 µM) | relative viability ([5]; 1 µM) |
| --- | --- | --- | --- | --- | --- | --- | --- | --- | --- | --- | --- | --- | --- | --- | --- | --- | --- | --- | --- | --- |
| NCI-H322M | 0.955 | 0.888 | 0.741 | 0.543 | 1.23 | 1.22 | 0.956 | 1.14 | 0.857 | 0.763 | 0.511 | 0.263 | 0.64 | 0.634 | 0.666 | 0.679 | 0.914 | 1.06 | 0.981 | 1.05 |
| HARA | 0.712 | 0.35 | 0.299 | 0.239 | 1.2 | 1.13 | 1.09 | 1.08 | 0.767 | 0.622 | 0.113 | 0.166 | 0.269 | 0.23 | 0.265 | 0.217 | 0.972 | 1.08 | 1.08 | 0.832 |
| NCI-H2023 | 0.685 | 0.662 | 0.35 | 0.178 | 0.959 | 0.965 | 0.734 | 0.313 | 0.936 | 0.753 | 0.286 | 0.103 | 0.266 | 0.195 | 0.25 | 0.209 | 0.972 | 0.946 | 0.757 | 0.605 |
| NCI-H1437 | 0.882 | 0.949 | 0.611 | 0.516 | 1.16 | 1.14 | 1.04 | 0.677 | 1.14 | 1.16 | 1.25 | 1.19 | 0.321 | 0.325 | 0.334 | 0.258 | 0.993 | 0.963 | 1.07 | 0.925 |
| BEN | 0.583 | 0.615 | 0.609 | 0.441 | 0.0665 | 0.0632 | 0.0606 | 0.0433 | 0.54 | 0.269 | 0.275 | 0.438 | 0.736 | 0.767 | 0.679 | 0.697 | 0.97 | 1.08 | 1.07 | 0.836 |
| LXF-289 | 0.885 | 0.696 | 0.763 | 0.557 | 0.97 | 0.935 | 0.992 | 0.827 | 0.687 | 0.514 | 0.78 | 0.344 | 0.886 | 0.873 | 0.956 | 1.17 | 0.995 | 1.07 | 1.03 | 1.09 |
| NCI-H1993 | 0.713 | 0.639 | 0.494 | 0.436 | 0.943 | 0.845 | 0.664 | 0.637 | 0.73 | 0.634 | 0.55 | 0.523 | 0.727 | 0.555 | 0.516 | 0.477 | 0.907 | 0.987 | 0.737 | 0.618 |
| LOU-NH91 | 1.09 | 0.901 | 0.797 | 0.651 | 0.822 | 0.735 | 0.573 | 0.408 | 0.347 | 0.338 | 0.321 | 0.274 | 0.366 | 0.406 | 0.345 | 0.356 | 0.983 | 0.999 | 1.02 | 0.875 |
| NCI-H1975 | 0.708 | 0.665 | 0.386 | 0.204 | 1.02 | 0.936 | 0.707 | 0.314 | 0.19 | 0.172 | 0.142 | 0.136 | 0.314 | 0.286 | 0.331 | 0.262 | 1.06 | 0.931 | 0.913 | 0.728 |
| PC-3 [JPC-3] | 0.953 | 0.548 | 0.613 | 0.418 | 0.758 | 0.749 | 0.803 | 0.496 | 0.604 | 0.775 | 0.509 | 0.462 | 1.12 | 1.24 | 1.23 | 1.07 | 1.02 | 1.04 | 1.11 | 1.07 |
| NCI-H2126 | 0.794 | 0.732 | 0.504 | 0.317 | 0.855 | 0.836 | 0.747 | 0.636 | 0.847 | 0.852 | 0.646 | 0.421 | 0.708 | 0.653 | 0.61 | 0.701 | 1.04 | 1.03 | 0.913 | 0.92 |
| LU99A | 0.548 | 0.593 | 0.327 | 0.225 | 0.818 | 0.638 | 0.574 | 0.361 | 0.254 | 0.228 | 0.251 | 0.204 | 0.174 | 0.152 | 0.186 | 0.203 | 1.01 | 1.07 | 0.961 | 1.02 |
| NCI-H23 | 0.636 | 0.722 | 0.349 | 0.263 | 0.852 | 0.899 | 0.665 | 0.372 | 0.203 | 0.219 | 0.198 | 0.203 | 0.713 | 0.559 | 0.651 | 0.64 | 0.944 | 0.909 | 0.896 | 0.783 |
| PC-14 | 0.72 | 0.661 | 0.534 | 0.325 | 1.03 | 1.06 | 1.06 | 0.739 | 0.162 | 0.151 | 0.141 | 0.123 | 0.129 | 0.14 | 0.164 | 0.144 | 0.937 | 1.02 | 0.991 | 1 |
| HCC-44 | 1.19 | 1.14 | 1.17 | 0.783 | 0.974 | 0.848 | 0.866 | 0.622 | 1.11 | 1.01 | 0.54 | 0.344 | 0.632 | 0.593 | 0.61 | 0.675 | 0.967 | 1.01 | 0.989 | 0.723 |
